This is an account of results in US20160230142A1, “CORNEAL STROMAL KERATOCYTE CULTURE” (SINGAPORE HEALTH SERVIES PTE LTD., priority 2013, published 2016).

What all share (type): cell-based
One test relates to primary human CSKs. Put plainly: F-actin stress fiber pattern by phalloidin staining (stress index). How it is done: Cornea specimens were washed in sterile PBS (0.01 M, Invitrogen, Carlsbad, Calif., US) added with 3% antibiotics-antimycotes (penicillin S, streptomysin sulfate and amphoptericin B, Invitrogen). Central corneal buttons (1 mm from peripheral limbus) were trephined and treated with dispase II (20 mg/ml, Roche, Basal, Switzerland) to remove corneal epithelium and endothelium. The stroma tissue was trimmed into small fragments (˜1 mm^3 in size) and digested with collagenase I (0.1%, Worthington, Lakewood, N.J., US) in keratocyte basal medium (KBM) for 8 to 10 hours at 37° C. After repeat pipetting, the cell suspension was passed through cell strainer (40 μm pore size), followed by centrifugation at 400 g for 5 min at room temperature. […]
The samples were fixed with freshly prepared 2% neutral buffered paraformaldehyde (Sigma), quenched with ice-cold 50 mM ammonium chloride (Sigma) and permeabilized with 0.15% saponin (Sigma). […] Results were visualized under fluorescence microscopy (Carl Zeiss) or confocal laser-scanning microscopy (LSM 510 Meta, Carl Zeiss).
[…] The percentage of stress cells in triplicate experiments was expressed as mean±SD. Results were compared and analyzed by paired Student's t-test and Dunn-Bonferroni correction.

In the next test the test system is Smad2/3. Put plainly: TGFβ-mediated nuclear localization of Smad2/3 (immunofluorescence). Particulars: TGFβ1 10 ng/ml, human CSKs at passage 5. How it is done: The samples were fixed with freshly prepared 2% neutral buffered paraformaldehyde (Sigma), quenched with ice-cold 50 mM ammonium chloride (Sigma) and permeabilized with 0.15% saponin (Sigma). After blocking with 2% bovine serum albumin (Sigma) and 2% normal goat serum (Invitrogen), the cells were incubated with primary antibody recognizing aldehyde dehydrogenase 1A1 (ALDH1A1, Proteintech), lumican (LUM, Bioss), transketolase (Tkt, Cell Signalling), αSMA (Sigma) or Alexa Fluor 543-conjugated phalloidin (Sigma), respectively. The secondary antibodies were either Alexa488 or Rhodamine Red-X-conjugated (Jackson ImmunoRes Lab, West Grove, Pa.). All nuclei were counterstained with DAPI (4′,6-diamidino-2-phenylindole, Santa Cruz) and samples were mounted in FluorShield (Sigma). Results were visualized under fluorescence microscopy (Carl Zeiss) or confocal laser-scanning microscopy (LSM 510 Meta, Carl Zeiss).
To examine if LAE (ASE) was effective in suppressing CSK transition to fibroblasts, TGFβ-mediated nuclear localization of Smad2/3 was studied.

For test [1], the system named is human CSKs (at passage 6). Put plainly: Collagen gel contraction assay. The settings on record: TGFβ1 (20 ng/ml) added to KBM with 2% FBS, 48 hours. As for the experimental part:
Bovine type I collagen gels were made to a final concentration of 2.5 mg/ml as liquid with KBM and supplements. It was mixed with cells at a density of 10^5 cells/ml and 0.5 ml mixture was added to each well of 24-multiwell plate coated with 1% BSA. It was allowed to gelation at 37° C. for 1 hour before addition of appropriate medium. After 24 hours, the gel was released from the side of culture well with a sterile needle to initiate contraction. The collagen gel size change was recorded at 48-hour interval and measured using Image J software (NIH). The percentages of collagen gel size to the size of culture well were compared among different treatments. Experiment was done in quadruplicate and the percentages of gel contraction were represented as median and interquartile range. Intergroup significance was calculated by Mann-Whitney U test.

Regarding `C[C@@H](N)[C@H]1CC[C@H](C(=O)Nc2ccncc2)CC1` [Y27632, (1R,4r)-4-((R)-1-aminoethyl)-N-(pyridin-4-yl)cyclohexanecarboxamide], the “stress index (percentage of cells with stress fibre pattern)” value with primary human CSKs (Y27632 (10 μM) added to KBM+0.5% FBS, 5 random fields) was 7.6±2.9%.

In the case of “IGF1: insulin-like growth factor 1 (10 ng/ml, Invitrogen)”, in the test with primary human CSKs (IGF1-treated cells with 0.5% FBS), the “cells with stress F-actin fibre” value is given as 29.3±7.3%.

For the compound TGFβ1: recombinant human TGFβ1, the “cells with nuclear Smad2/3” value in the test on Smad2/3 (3 days) turned out to be 43.8%; in the test with Smad2/3 (incubated for 3 hours) it was 22%. Also, the “gel contraction (median)” value in test [1] is given as 91.7%.
